The values that follow come from ChEMBL document CHEMBL1153819, “Use of acetylcholine binding protein in the search for novel alpha7 nicotinic receptor ligands. In silico docking, pharmacological screening, and X-ray analysis” (J Med Chem, 2009).

SMILES strings stand for the structures. Calls of active or inactive are those of the source. The rule behind the calls is not given here.

Experiment [1] deals with T1, Neuronal acetylcholine receptor subunit alpha-7 (Homo sapiens, UniProt P36544). The experiment is described as follows: Displacement of [125I]alpha-bungarotoxin from human alpha7 nAChR expressed in human SH-SY5Y cells. The format is cell-based. A general note: Displacement assays read how much labelled ligand stays bound in the presence of the test substance.
T1 sequence (P36544 whole entry): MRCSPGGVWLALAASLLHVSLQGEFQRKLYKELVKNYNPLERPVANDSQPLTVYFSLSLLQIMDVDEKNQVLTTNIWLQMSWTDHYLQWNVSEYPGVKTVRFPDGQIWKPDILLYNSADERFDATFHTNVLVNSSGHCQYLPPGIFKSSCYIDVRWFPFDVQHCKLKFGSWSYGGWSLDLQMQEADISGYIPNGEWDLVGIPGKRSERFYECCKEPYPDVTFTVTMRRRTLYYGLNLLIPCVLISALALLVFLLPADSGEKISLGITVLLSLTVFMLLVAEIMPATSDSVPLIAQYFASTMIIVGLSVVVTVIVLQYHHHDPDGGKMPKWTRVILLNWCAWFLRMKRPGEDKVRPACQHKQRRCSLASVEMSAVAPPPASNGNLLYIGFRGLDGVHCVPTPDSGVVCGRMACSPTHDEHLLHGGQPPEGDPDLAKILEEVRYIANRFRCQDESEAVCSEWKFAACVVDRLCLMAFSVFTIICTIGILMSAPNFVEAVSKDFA
Experiment [2] deals with T1, Neuronal acetylcholine receptor subunit alpha-7. Nature of the experiment: Binding affinity to human alpha7 nAChR allosteric site assessed as decrease in bungarotoxin Bmax at 100 uM by [125I]alpha-bungarotoxin saturation binding experiment.
The target in experiment [3] is Acetylcholine-binding protein (Lymnaea stagnalis, UniProt P58154). Nature of the experiment: Displacement of [125I]alpha-bungarotoxin from Lymnaea stagnalis His-tagged AchBP.
Chain of Acetylcholine-binding protein (P58154 whole entry): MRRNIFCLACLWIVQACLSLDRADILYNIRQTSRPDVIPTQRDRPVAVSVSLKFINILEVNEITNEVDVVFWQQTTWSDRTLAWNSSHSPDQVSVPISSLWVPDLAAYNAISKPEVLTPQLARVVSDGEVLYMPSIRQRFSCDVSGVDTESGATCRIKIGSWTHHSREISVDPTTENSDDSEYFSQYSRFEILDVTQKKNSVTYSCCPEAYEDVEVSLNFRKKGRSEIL
Experiment [4] deals with T2, 5-hydroxytryptamine receptor 3A (Homo sapiens) (UniProt P46098).
T2 sequence (whole entry): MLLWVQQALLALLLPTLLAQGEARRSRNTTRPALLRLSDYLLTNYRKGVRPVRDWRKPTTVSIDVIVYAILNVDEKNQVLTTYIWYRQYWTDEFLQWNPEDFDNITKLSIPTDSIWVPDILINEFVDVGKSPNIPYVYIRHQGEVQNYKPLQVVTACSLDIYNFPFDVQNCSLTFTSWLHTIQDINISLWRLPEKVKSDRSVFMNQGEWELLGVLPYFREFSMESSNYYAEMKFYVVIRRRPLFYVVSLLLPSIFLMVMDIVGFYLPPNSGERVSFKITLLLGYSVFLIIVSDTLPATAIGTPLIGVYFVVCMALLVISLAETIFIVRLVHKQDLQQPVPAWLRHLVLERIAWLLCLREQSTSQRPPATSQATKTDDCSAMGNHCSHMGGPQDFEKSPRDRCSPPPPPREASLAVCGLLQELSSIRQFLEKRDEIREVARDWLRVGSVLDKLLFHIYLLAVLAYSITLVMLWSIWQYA
Nature of the experiment: Inhibition of human 5HT3A receptor.

For experiment [5], the target named is T1, Neuronal acetylcholine receptor subunit alpha-7. Nature of the experiment: Activity at human alpha7 nAChR expressed in Xenopus oocytes assessed as inhibition of acetylcholine-evoked current. The format is cell-based, Oocyte. As to conditions: for Activity: Oocyte.
Experiment [6] deals with T3, Neuronal acetylcholine receptor; alpha4/beta2 (Homo sapiens, UniProt P17787+P43681). The experiment is described as follows: Activity at human alpha4beta2 nAChR expressed in Xenopus oocytes assessed as inhibition of acetylcholine-evoked current. In kind it is cell-based, Oocyte. As to conditions: for Activity: Oocyte.
T3 sequence (P17787 whole entry): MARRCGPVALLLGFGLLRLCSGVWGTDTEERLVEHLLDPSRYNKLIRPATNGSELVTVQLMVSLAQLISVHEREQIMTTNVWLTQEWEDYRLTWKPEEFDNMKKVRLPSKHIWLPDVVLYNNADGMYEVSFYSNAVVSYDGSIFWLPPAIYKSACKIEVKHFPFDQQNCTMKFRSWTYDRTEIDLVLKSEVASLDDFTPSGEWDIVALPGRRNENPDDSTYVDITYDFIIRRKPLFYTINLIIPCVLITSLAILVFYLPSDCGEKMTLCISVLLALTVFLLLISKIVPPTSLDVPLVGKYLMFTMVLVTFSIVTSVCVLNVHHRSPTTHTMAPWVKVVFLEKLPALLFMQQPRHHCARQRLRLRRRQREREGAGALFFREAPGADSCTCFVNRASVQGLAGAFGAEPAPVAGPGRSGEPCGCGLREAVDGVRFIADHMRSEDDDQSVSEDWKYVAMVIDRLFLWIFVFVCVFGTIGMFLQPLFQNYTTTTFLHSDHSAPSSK
T3 sequence (P43681 whole entry): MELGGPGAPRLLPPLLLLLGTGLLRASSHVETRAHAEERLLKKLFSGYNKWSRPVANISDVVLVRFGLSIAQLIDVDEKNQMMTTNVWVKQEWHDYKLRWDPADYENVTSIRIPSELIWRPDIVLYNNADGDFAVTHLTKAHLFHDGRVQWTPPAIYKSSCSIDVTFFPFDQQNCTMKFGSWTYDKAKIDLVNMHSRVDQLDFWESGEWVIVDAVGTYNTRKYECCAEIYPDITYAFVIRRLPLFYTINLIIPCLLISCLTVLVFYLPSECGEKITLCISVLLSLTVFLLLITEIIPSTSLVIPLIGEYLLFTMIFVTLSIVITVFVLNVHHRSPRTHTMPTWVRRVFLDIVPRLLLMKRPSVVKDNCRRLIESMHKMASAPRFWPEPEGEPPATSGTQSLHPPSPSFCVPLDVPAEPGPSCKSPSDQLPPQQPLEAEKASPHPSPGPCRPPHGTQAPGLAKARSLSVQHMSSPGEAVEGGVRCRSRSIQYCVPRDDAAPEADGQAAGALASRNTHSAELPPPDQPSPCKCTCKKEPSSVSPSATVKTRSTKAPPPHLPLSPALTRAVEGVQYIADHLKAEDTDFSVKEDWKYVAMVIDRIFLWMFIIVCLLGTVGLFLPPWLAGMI
Experiment [7] deals with T3, Neuronal acetylcholine receptor; alpha4/beta2. The experiment is described as follows: Displacement of [3H]epibatidine from human alpha4beta2 nAChR expressed in HEK293t cells. The format is cell-based. As to conditions: HEK-293T.
A short description of experiment [8]: Displacement of [3H]epibatidine from Aplysia californica AchBP.
The target of experiment [9] is T1, Neuronal acetylcholine receptor subunit alpha-7. Nature of the experiment: Binding affinity to human alpha7 nAChR allosteric site assessed as increase in bungarotoxin Kd at 100 uM by [125I]alpha-bungarotoxin saturation binding experiment.

Take `c1ccc(CN2C3CCC2CC(OC2c4ccccc4CCc4ccccc42)C3)cc1` (centres undefined): the Ki in experiment [1] is 12.6 µM; in experiment [3] it was 0.1 µM. Further, the outcome in [2], in experiment [4] and in experiment [9] was Active. The IC50 in experiment [5] turned out to be 1.73 µM; in [6], 0.46 µM. Further, the Activity result in [5] and in [6] was “Dose-dependent effect” throughout. In experiment [7], the outcome was inactive. Further, the pKi in [8] is given as 6.
As for `CN1CCC(OC2c3ccccc3CCc3ccccc32)CC1` [HEPZIDINE], in experiment [3], the affinity, expressed as Ki, was 1.58 µM.
`Cc1cccc2c1CCc1ccccc1C2OC1CC2CCC(C1)N2C` (centres undefined) gave a Ki in experiment [3] of 0.316 µM.
Same read-out and setting: next, `CN1C2CCC1CC(OC(=O)COC1c3ccccc3CCc3ccccc31)C2` (centres undefined): 0.1 µM.
Take `C[N+]1(C)C2CCC1CC(OC1c3ccccc3CCc3ccccc31)C2` (centres undefined): the Ki in experiment [1] was 2 µM; in [3] it was 0.0631 µM. For the same compound, the result in experiment [2] and in experiment [4] was Active. Further, the IC50 in experiment [5] was 0.88 µM; in experiment [6] it was 0.21 µM. Moreover, the Activity result in experiment [5] and in experiment [6] was “Dose-dependent effect” in each case. Further, the outcome in experiment [7] was inactive.
`c1ccc2c(c1)CCc1ccccc1C2OC1CC2CCC(C1)N2` (centres undefined): the affinity in experiment [3] corresponds to a Ki of 0.316 µM.
Still for that read-out and setting: the same measure for `CN1[C@@H]2CC[C@H]1C[C@@H](OC1c3ccccc3CCc3ccccc31)C2` [DEPTROPINE]: 0.398 µM; for `N=C(CCN1C2CCC1CC(OC1c3ccccc3CCc3ccccc31)C2)NO` (centres undefined): 1.26 µM; for `c1ccc2c(c1)CCc1ccccc1C2OC1CCNCC1`: 3.16 µM.
Same read-out and setting: the same measure for `NC(N)=NCCN1C2CCC1CC(OC1c3ccccc3CCc3ccccc31)C2` (centres undefined): 0.501 µM; for `Cc1ccc2c(c1)C(OC1CC3CCC(C1)N3C)c1ccccc1CC2` (centres undefined): 0.126 µM.
Regarding `CN1CCC[C@H]1c1cccnc1` [NICOTINE], the pKi in experiment [8] worked out at 6.4.
In [3], `N#CCCN1C2CCC1CC(OC1c3ccccc3CCc3ccccc31)C2` (centres undefined) had a Ki of 1 µM.
On the same count and under the same terms, next, `CC(=O)OCC[N+](C)(C)C` [ACETYLCHOLINE]: 3.16 µM.
As for `CCCN1CCC(OC2c3ccccc3CCc3ccccc32)CC1`, the Ki in experiment [3] is 0.631 µM. Compared with the last compound, the Ki is about 5-fold lower.
On to `CCN1C2CCC1CC(OC1c3ccccc3CCc3ccccc31)C2` (centres undefined), for which, in experiment [3], the affinity corresponds to a Ki of 0.126 µM.

What is called Ki is the dissociation constant of the complex between target and ligand, obtained from inhibition or displacement. A lower Ki goes with a stronger hold on the target. In general, IC50 refers to the midpoint of a concentration-inhibition curve. Broadly, the pKi is the Ki on a negative log10 scale, so that one unit is a factor of ten. A lower pKi goes with a high Ki.
